From ChEMBL document CHEMBL3507680, “University of Dundee, Gates Library screen for HepG2 cell viability”

Assay: Human HepG2 cell viability assay in 384 well format
Format: toxicity, cell-based
Parameters: dose 125 nL, time 70.5 hour; concentration not given beside the values
Settings: HepG2 cells, read-out: Inhibition

| Compound | cytotoxicity at 70.5 h |
| --- | --- |
| CN(Cc1ccc2nsnc2c1)C(=O)Cn1ncc(N(C)C)cc1=O | -7.03% |
| Cc1nn(C)c2nc(NCCN3CCCC(C(N)=O)C3)sc12 (stereo unspecified) | -13.4% |
| Cn1ncc2c(N3CCCC(C)(O)C3)nc(C(C)(C)C)nc21 (stereo unspecified) | -7.72% |
| COCCn1cnnc1CN(C)c1nc(N)ncc1C | -14.6% |
| Cc1nc(NC(=O)NC2CC(=O)N(C(C)C)C2)nn1C(C)C (stereo unspecified) | -0.942% |
| CC(C)C1CN(Cc2nccn2C(C)C)CCC(=O)N1CC1CC1 (stereo unspecified) | 0.0298% |
| CC(C)N1C[C@H](NC(=O)c2coc(COc3cccc(F)c3)n2)[C@@H](O)C1 | 2.02% |
| COc1ccc(-n2c(CCC(=O)O)nc3ccccc32)cc1CO | 4.28% |
| O=C(CN1C(=O)CCNC1=O)N1CCC2(CCc3ccccc32)CC1 | 16.2% |
| O=c1cc(N2CCCC2)cnn1CCc1cccc(F)c1 | 34.6% |
| COCc1noc(CCNC(=O)c2ccc(C3CCCO3)s2)n1 (stereo unspecified) | 8.28% |
| CN1CCCC2(CCN(C(=O)Cn3ncc4ccccc4c3=O)C2)C1=O (stereo unspecified) | 9.09% |
| CCc1ncc(C(=O)N(CC)CCOC)cn1 | -1.19% |
| COc1nc2ccn(CCc3scnc3C)c(=O)c2cc1C#N | -4.15% |
| OCC1(Cc2cccc(Cl)c2)CCCN(c2ncccn2)C1 (stereo unspecified) | 28.5% |
| CC1(Cc2ccccn2)NCCc2[nH]cnc21 (stereo unspecified) | -1.72% |
| O=C(O)CC[C@@H]1CN(c2ncccc2F)CC[C@@H]1N1CCOCC1 | -8.92% |
| COCCC(=O)N(C)CCC1=CCN(C)CC1 | 33% |
| O=C(NCc1ccc2[nH]c(=O)[nH]c2c1)c1ccc(CN2CCCC2)o1 | -9.98% |

| Compound | cytotoxicity at 70.5 h |
| --- | --- |
| Cc1cc(CN(C)C(=O)C(c2ccccc2F)N(C)C)ccn1 (stereo unspecified) | -7.87% |
| CC(C)n1ccnc1C1CCN(c2nccc(C(F)(F)F)n2)CC1 | 5.98% |
| COc1ccc(Cc2noc(-c3ccc(NC(C)CO)nc3)n2)cc1 (stereo unspecified) | 3.07% |
| CC(C)(O)c1cn(C2CCN(C(=O)CCC(F)(F)F)CC2)nn1 | -2.56% |
| CCC(C)N(Cc1cnc(NC(C)C)nc1)Cc1ccsc1 (stereo unspecified) | -4.23% |
| Cc1nc(CN2CCC(C(=O)O)(n3ccc(C(C)C)n3)CC2)co1 | -0.222% |
| Cc1cc(C)c2c(c1)NC(=O)C2CC(=O)O (stereo unspecified) | -4.36% |
| CCOCCNC(=O)C1CCC(=O)N(CCc2ccc(Cl)cc2)C1 (stereo unspecified) | -3.36% |
| CC(C)CN(Cc1ccc(C(F)(F)F)nc1)Cc1cnn(C)c1 | -3.14% |
| O=C(c1ccc(S(=O)(=O)N2CCNCC2)cc1)N1CCCC(O)C1 (stereo unspecified) | -16.1% |
| COc1cc2c(cc1CN1CCC3(CCCN(C)C3=O)C1)OCCO2 (stereo unspecified) | -15.9% |
| CC(Nc1nccc(CCC(F)(F)F)n1)c1nc(-c2ccccn2)no1 (stereo unspecified) | -2.61% |
| CCNC(=O)[C@@H]1C[C@H](NC(=O)c2cc(=O)[nH]c3ccc(C)cc23)CN1C | -7.81% |
| Cn1c(Cn2ncc(N3CCCC3)cc2=O)nc2ccccc21 | 25.6% |
| Cn1nc(C2CC2)c2c1NC(=O)CC2c1cc(CN2CCCC2)cs1 (stereo unspecified) | -8.83% |
| c1ccc(SCCN2CCN(CCn3cncn3)CC2)cc1 | -22.3% |
| c1ccc(CN2C[C@H]3CC[C@@H]2CN(Cc2nnc(C4CC4)o2)C3)cc1 | -1.91% |
| O=C(Cn1cccc1)NCC1CCN(Cc2cc3ccccc3[nH]2)C1 (stereo unspecified) | -16.5% |
| COCCCC1(CO)CCCN(Cc2ccc(F)c(OC)c2)C1 (stereo unspecified) | 9.96% |

| Compound | cytotoxicity at 70.5 h |
| --- | --- |
| CCCc1nc(C)c(CNc2nc(C)nc3oc(C)nc23)s1 | -8.14% |
| CCc1cc(NC2CCOCC2)n2nc(C)c(C)c2n1 | -10.6% |
| COCCOC1CCN(C(C(=O)O)c2ccc(OC)c(F)c2)CC1 (stereo unspecified) | -6% |
| O=C(c1ccoc1)N1CCCN(C(=O)c2ccc(C3CCCN3)s2)CC1 (stereo unspecified) | -7.17% |
| CN(C)CC1(O)CCN(Cc2cnc3c(-c4ccccc4)cnn3c2)C1 (stereo unspecified) | -4.22% |
| CC(N)C(=O)N1CCC(Oc2cccc(C(F)(F)F)c2)CC1 (stereo unspecified) | 11.5% |
| Cc1cnc(CNC(=O)C2CCOc3ccccc3C2)cn1 (stereo unspecified) | -19.3% |
| CN1CCN(Cc2cnc(S(=O)(=O)CC3CC3)n2CC2CCCO2)CC1 (stereo unspecified) | -4.87% |
| Cn1ccnc1CN1C[C@@H](CN2CCCCC2)[C@@H](CO)C1 | -6.64% |
| COc1ccc(CN2CCC3(CCCNC3)C2)cc1Cn1cccn1 (stereo unspecified) | 3.97% |
| CCN(C)CC(C)Cn1cnc(-c2ccccc2)c1C (stereo unspecified) | -15.1% |
| CC[C@@]1(O)CCN(c2ncc(Cl)cc2F)C[C@H]1O | -13.4% |
| CCCc1cc(CNC2CCN(c3nc(C)cc(C)n3)CC2)on1 | -5.05% |
| CCC[C@@H]1CN(C(=O)c2cc3ccccc3s2)C[C@H]1NS(C)(=O)=O | -2.51% |
| CCN(C)C(=O)CN1CCC(c2cc(N3CCOCC3)nc(C)n2)CC1 | -6.04% |
| Cc1ccc(C)c(OCc2cc(C(=O)N(C)CC(O)CO)no2)c1 (stereo unspecified) | -4.59% |
| CCc1ncc(S(C)(=O)=O)c(C2CCCNC2)n1 (stereo unspecified) | -5.94% |
| CN(CCc1ccccc1)c1cnn(CC2COCCO2)c(=O)c1 (stereo unspecified) | -4.1% |
